In PubChem BioAssay AID1963826 (Molecular Pharmacology Branch, DTP, NCI, 2024):

Test system: 926638-142-R-J1-PDC complex spheroid viability
Assay: Anticancer human tumor 926638-142-R-J1-PDC patient-derived endometrial carcinoma cell line growth inhibition [POLQ]
Settings: for IC50: curve of first compound; for viability, T/C: stronger effect = lower value
Method: Multicellular complex tumor spheroid response to Polymerase (POL) inhibitors (novobiocin, ART-558, RP6685) in combination with a variety of drugs and investigational agents in selected tumor cell lines
The POL inhibitors (novobiocin, ART-558, and RP6685) were evaluated both individually and in combination with standard of care and investigational anticancer small molecules within a complex spheroid model of solid tumors. . Complex spheroids include a stromal component modeled by human endothelial cells (HUVEC) and fibroblasts modeled by human mesenchymal stem cells (MSCs). The concentration ranges selected for each drug and investigational agent were based upon clinically achievable concentrations if the clinical Cmax of the agent was known.
Compounds. The drugs and investigational agents: novobiocin (NSC847541), ART-558 (NSC835418), RP-6685 (NSC848927), peposertib (NSC802822), ceralasertib (NSC780249), elimusertib (NSC800525), camonsertib (NSC841442), AZD-1390 (NSC803789), olaparib (NSC753686), talazoparib (NSC767125), rucaparib (NSC756644), sotorasib (NSC818433), MRTX-1133 (NSC836407), SN-38 (NSC673596), topotecan (NSC609699), epotoside (NSC141540), doxorubicin (NSC123127), gemcitabine (NSC613327), 5-fluorouracil (NSC19893), paclitaxel (NSC125973), vemurafenib (NSC761431), MSA-2 (NSC828583), SN-011 (NSC837082), adavosertib (NSC754352), prexasertib (NSC758257), carboplatin (NSC241240) and oxaliplatin (NSC266046), were obtained from the National Cancer Institute (NCI) Developmental Therapeutics Program Chemical Repository (21). The FDA-approved anticancer drug set is available from the Developmental Therapeutics Program at https://dtp.cancer.gov/organization/dscb/obtaining/. […] The stock solutions were prepared in dimethyl sulfoxide (DMSO, Sigma-Aldrich, St. Louis, MO, cat. D2650), except for the platinum compounds which were prepared in saline (Quality Biological, Gaithersburg, MD, cat. 114-055-101), at 800-fold the tested concentration and stored at -70 degrees C prior to their use. All drugs and investigational agents were tested over a range starting from a high concentration at or near the clinical Cmax and decreasing in half-log increments. If the clinical Cmax for an agent had not been determined, the highest concentration tested was 10 microM, except for SN-38, which was tested at a high concentration of 1 microM.
Cell Culture. All cells were maintained in an incubator at 37 degrees C and 5% CO2 with 95% humidity. The PDC lines were cultured according to standard operating procedures established by the NCI PDMR (https://pdmr.cancer.gov). Table 3 of the manuscript, lists the cell lines along with the number of the three cell types plated to form the mct-spheroids and media for tumor cell growth. After thawing, all PDC lines, except 997537-175-T-J1-PDC and 415267-285-R-J2-PDC, were cultured in Matrigel-coated flasks prepared with a working solution of 1X Ham's F-12 nutrient mix, without supplementation (Thermo Fisher Scientific, cat. 11765054), 100 U/mL penicillin-streptomycin (Thermo Fisher Scientific, cat. 15140122), and 2.5% Matrigel (Corning Inc., Corning, NY, cat. 354248) for the first three passages. The two PDC lines 997537-175-T-J1-PDC and 415267-285-R-J2-PDC were cultured on uncoated flasks. The 857933-349-R-J2-PDC line was cultured in 6C/Colon 1B media containing advanced DMEM/F-12 (Thermo Fisher Scientific, cat. 12634028), 10 mM HEPES (Thermo Fisher Scientific, cat. 15630080), 1X GlutaMAX supplement (Thermo Fisher Scientific, cat. 35050061), 0.1 mg/mL primocin (InvivoGen, San Diego, CA, cat. ant-pm-2), 10% defined fetal bovine serum, heat inactivated (HyClone Laboratories Inc., Logan, UT, cat. SH30070.03HI), 50% L-WRN conditioned media (ATCC, cat. CRL-3276), 1.25 mM N-Acetyl-L-cysteine (Sigma-Aldrich, cat. A9165), 10 mM nicotinamide (Sigma-Aldrich, cat. N0636), 1X B-27 supplement (Thermo Fisher Scientific, cat. 17504044), 1X N-2 supplement (Thermo Fisher Scientific, cat. […]

[1] = second compound 0.0316 µM, first compound 0.0316 µM
[2] = second compound 0.0316 µM, first compound 0.1 µM
[3] = second compound 0.0316 µM, first compound 0.316 µM
[4] = second compound 0.0316 µM, first compound 1 µM
[5] = second compound 0.0316 µM, first compound 3.16 µM
[6] = second compound 0.0316 µM, first compound 10 µM
[7] = second compound 0.1 µM, first compound 0.0316 µM
[8] = second compound 0.1 µM, first compound 0.1 µM
[9] = second compound 0.1 µM, first compound 0.316 µM
[10] = second compound 0.1 µM, first compound 1 µM
[11] = second compound 0.1 µM, first compound 3.16 µM
[12] = second compound 0.1 µM, first compound 10 µM
[13] = second compound 0.316 µM, first compound 0.0316 µM
[14] = second compound 0.316 µM, first compound 0.1 µM
[15] = second compound 0.316 µM, first compound 0.316 µM
[16] = second compound 0.316 µM, first compound 1 µM
[17] = second compound 0.316 µM, first compound 3.16 µM
[18] = second compound 0.316 µM, first compound 10 µM
[19] = second compound 1 µM, first compound 0.0316 µM
[20] = second compound 1 µM, first compound 0.1 µM
[21] = second compound 1 µM, first compound 0.316 µM
[22] = second compound 1 µM, first compound 1 µM
[23] = second compound 1 µM, first compound 3.16 µM
[24] = second compound 1 µM, first compound 10 µM
[25] = second compound 3.16 µM, first compound 0.0316 µM
[26] = second compound 3.16 µM, first compound 0.1 µM
[27] = second compound 3.16 µM, first compound 0.316 µM
[28] = second compound 3.16 µM, first compound 1 µM
[29] = second compound 3.16 µM, first compound 3.16 µM
[30] = second compound 3.16 µM, first compound 10 µM
[31] = second compound 10 µM, first compound 0.0316 µM
[32] = second compound 10 µM, first compound 0.1 µM
[33] = second compound 10 µM, first compound 0.316 µM
[34] = second compound 10 µM, first compound 1 µM
[35] = second compound 10 µM, first compound 3.16 µM
[36] = second compound 10 µM, first compound 10 µM
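Further: spheroids exposed to drugs for one week before readout.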
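Wherever viability, T/C is given: percent viability relative to DMSO vehicle control wells set as 100%.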

`COc1ccc([C@@H](O)c2cc(-c3ncnc4cc(N5CCOCC5)ccc34)c(F)cc2Cl)nn1` + Cc1cccc(N(C)C(=O)C2C(O)CCN2c2nc(C)cc(C(F)(F)F)c2C#N)c1 was tested, and the IC50 (second compound 0.0316 µM) was 0.459 µM, the IC50 (second compound 0.1 µM) was 0.546 µM and the IC50 (second compound 0.316 µM) was 0.399 µM. For the same compound, the IC50 (second compound 1 µM) was 0.493 µM, the IC50 (second compound 3.16 µM) was 0.484 µM and the IC50 (second compound 10 µM) was 0.415 µM. For the same compound, the viability, T/C [1] was 76.7%, the viability, T/C [2] was 93.2% and the viability, T/C [3] was 58.1%. It also gave a viability, T/C [4] of 26.9%, a viability, T/C [5] of 12.9% and a viability, T/C [6] of 7.35%. For the same compound, the viability, T/C [7] was 99%, the viability, T/C [8] was 80.7% and the viability, T/C [9] was 74.2%. It also gave a viability, T/C [10] of 24.3%, a viability, T/C [11] of 11.5% and a viability, T/C [12] of 9.24%. The viability, T/C [13] was 77.3%, the viability, T/C [14] was 71.1% and the viability, T/C [15] was 57.2%. For the same compound, the viability, T/C [16] was 24.6%, the viability, T/C [17] was 13.3% and the viability, T/C [18] was 7.22%. It also gave a viability, T/C [19] of 107%, a viability, T/C [20] of 89.7% and a viability, T/C [21] of 65.9%. It also gave a viability, T/C [22] of 26.8%, a viability, T/C [23] of 14.7% and a viability, T/C [24] of 9.12%. For the same compound, the viability, T/C [25] was 83.5%, the viability, T/C [26] was 88.1% and the viability, T/C [27] was 57.8%. For the same compound, the viability, T/C [28] was 32.7%, the viability, T/C [29] was 12.2% and the viability, T/C [30] was 9.15%. It also gave a viability, T/C [31] of 76.5%, a viability, T/C [32] of 94% and a viability, T/C [33] of 56%. The viability, T/C [34] was 24%, the viability, T/C [35] was 12.9% and the viability, T/C [36] was 9.62%.
`O=C(Nc1ccc(O)c(NS(=O)(=O)c2ccc(F)cc2)c1)c1ccc(-c2ccccc2)cc1` + Cc1cccc(N(C)C(=O)C2C(O)CCN2c2nc(C)cc(C(F)(F)F)c2C#N)c1 was tested, and the IC50 (second compound 0.0316 µM) was > 10 µM, the IC50 (second compound 0.1 µM) was > 10 µM and the IC50 (second compound 0.316 µM) was > 10 µM. The IC50 (second compound 1 µM) was > 10 µM, the IC50 (second compound 3.16 µM) was > 10 µM and the IC50 (second compound 10 µM) was > 10 µM. The viability, T/C [1] was 93.9%, the viability, T/C [2] was 93.2% and the viability, T/C [3] was 91.6%. For the same compound, the viability, T/C [4] was 91%, the viability, T/C [5] was 90.5% and the viability, T/C [6] was 62.5%. It also gave a viability, T/C [7] of 104%, a viability, T/C [8] of 78.6% and a viability, T/C [9] of 81.2%. For the same compound, the viability, T/C [10] was 94%, the viability, T/C [11] was 90.1% and the viability, T/C [12] was 62.5%. The viability, T/C [13] was 94.3%, the viability, T/C [14] was 105% and the viability, T/C [15] was 86.6%. The viability, T/C [16] was 87.8%, the viability, T/C [17] was 94.5% and the viability, T/C [18] was 67.2%. The viability, T/C [19] was 90.3%, the viability, T/C [20] was 94.8% and the viability, T/C [21] was 88.1%. For the same compound, the viability, T/C [22] was 96.9%, the viability, T/C [23] was 85.6% and the viability, T/C [24] was 73.1%. For the same compound, the viability, T/C [25] was 79.6%, the viability, T/C [26] was 91.5% and the viability, T/C [27] was 82.1%. It also gave a viability, T/C [28] of 97.6%, a viability, T/C [29] of 95.7% and a viability, T/C [30] of 68.5%. The viability, T/C [31] was 79.1%, the viability, T/C [32] was 75.8% and the viability, T/C [33] was 74.6%. For the same compound, the viability, T/C [34] was 78.7%, the viability, T/C [35] was 80.7% and the viability, T/C [36] was 55.7%.
With `O=C(c1cc(Cc2n[nH]c(=O)c3ccccc23)ccc1F)N1CCN(C(=O)C2CC2)CC1` + Nc1ccc(C#CCN(C(=O)Cc2ncc(C(F)(F)F)cc2C(F)(F)F)c2ccc(F)cc2)nn1 the IC50 (second compound 0.0316 µM) was > 10 µM, the IC50 (second compound 0.1 µM) was > 10 µM and the IC50 (second compound 0.316 µM) was > 10 µM. For the same compound, the IC50 (second compound 1 µM) was > 10 µM, the IC50 (second compound 3.16 µM) was > 10 µM and the IC50 (second compound 10 µM) was > 10 µM. The viability, T/C [1] was 82.5%, the viability, T/C [2] was 96.2% and the viability, T/C [3] was 84.5%. It also gave a viability, T/C [4] of 94.9%, a viability, T/C [5] of 81.9% and a viability, T/C [6] of 80.4%. The viability, T/C [7] was 101%, the viability, T/C [8] was 110% and the viability, T/C [9] was 86.5%. The viability, T/C [10] was 88.2%, the viability, T/C [11] was 80.7% and the viability, T/C [12] was 73.8%. For the same compound, the viability, T/C [13] was 100%, the viability, T/C [14] was 93.8% and the viability, T/C [15] was 89.7%. It also gave a viability, T/C [16] of 99%, a viability, T/C [17] of 82.8% and a viability, T/C [18] of 77.8%. The viability, T/C [19] was 97.5%, the viability, T/C [20] was 90.6% and the viability, T/C [21] was 85%. It also gave a viability, T/C [22] of 83.2%, a viability, T/C [23] of 82% and a viability, T/C [24] of 69.3%. For the same compound, the viability, T/C [25] was 86.3%, the viability, T/C [26] was 89.9% and the viability, T/C [27] was 91.4%. For the same compound, the viability, T/C [28] was 87.6%, the viability, T/C [29] was 98.3% and the viability, T/C [30] was 81.6%. The viability, T/C [31] was 87.6%, the viability, T/C [32] was 85.8% and the viability, T/C [33] was 80.1%. The viability, T/C [34] was 73.7%, the viability, T/C [35] was 81.5% and the viability, T/C [36] was 66.1%.
